Where two headings read alike, the source gives them in different places.
Columns and labels:
Assay type in all cases: cell-based
[1] = molecular target: T1, human muscarinic M2 receptor (Homo sapiens, UniProt P08172); experiment: Alphascreen Surefire phospho-ERK1/2 functional assay, M2; details: for EC50: CHO cells stably expressing human M2, read-out: pEC50 M2 (converted); for Emax: CHO, read-out: % Emax cf. ACh (M2), CHO cells stably expressing human M2, relative to ACh
T1 sequence (P08172 1-466): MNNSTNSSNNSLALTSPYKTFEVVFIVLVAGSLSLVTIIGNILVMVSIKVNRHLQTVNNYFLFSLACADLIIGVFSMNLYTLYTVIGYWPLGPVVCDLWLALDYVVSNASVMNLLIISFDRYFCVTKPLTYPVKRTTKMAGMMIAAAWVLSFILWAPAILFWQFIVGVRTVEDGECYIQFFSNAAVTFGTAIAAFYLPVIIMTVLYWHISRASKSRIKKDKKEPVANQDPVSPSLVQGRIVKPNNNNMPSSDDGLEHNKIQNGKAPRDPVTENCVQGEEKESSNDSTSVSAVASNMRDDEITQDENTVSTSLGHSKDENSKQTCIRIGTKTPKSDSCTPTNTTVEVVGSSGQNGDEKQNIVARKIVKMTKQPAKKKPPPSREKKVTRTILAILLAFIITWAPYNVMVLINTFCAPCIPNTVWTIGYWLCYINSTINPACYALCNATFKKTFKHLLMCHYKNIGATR
Description: (§1) ERK1/2 phosphorylation is a downstream consequence of both Gq/11 and Gi/o protein coupled receptor activation, making it highly suitable for the assessment of M1, M3 (Gq/11 coupled) and M2, M4 receptors (Gi/o coupled), rather than using different assay formats for different receptor subtypes. CHO cells stably expressing the human muscarinic M1, M2, M3 or M4 receptor were plated (25K/well) onto 96-well tissue culture plates in MEM-alpha+10% dialysed FBS. Once adhered, cells were serum-starved overnight. Agonist stimulation was performed by the addition of 5 μL agonist to the cells for 5 min (37° C.). Media was removed and 50 μL of lysis buffer added. After 15 min, a 4 μL sample was transferred to 384-well plate and 7 μL of detection mixture added.

[2] = molecular target: T2, human muscarinic M1 receptor (Homo sapiens, UniProt P11229); experiment: Alphascreen Surefire phospho-ERK1/2 functional assay, M1; details: phospho-ERK1/2; for EC50: read-out: pEC50 M1 (converted); for Emax: CHO, read-out: % Emax cf. ACh (M1), CHO cells stably expressing human M1; for Emax / % Emax cf. ACh (M1): relative to ACh
T2 sequence (P11229 1-460): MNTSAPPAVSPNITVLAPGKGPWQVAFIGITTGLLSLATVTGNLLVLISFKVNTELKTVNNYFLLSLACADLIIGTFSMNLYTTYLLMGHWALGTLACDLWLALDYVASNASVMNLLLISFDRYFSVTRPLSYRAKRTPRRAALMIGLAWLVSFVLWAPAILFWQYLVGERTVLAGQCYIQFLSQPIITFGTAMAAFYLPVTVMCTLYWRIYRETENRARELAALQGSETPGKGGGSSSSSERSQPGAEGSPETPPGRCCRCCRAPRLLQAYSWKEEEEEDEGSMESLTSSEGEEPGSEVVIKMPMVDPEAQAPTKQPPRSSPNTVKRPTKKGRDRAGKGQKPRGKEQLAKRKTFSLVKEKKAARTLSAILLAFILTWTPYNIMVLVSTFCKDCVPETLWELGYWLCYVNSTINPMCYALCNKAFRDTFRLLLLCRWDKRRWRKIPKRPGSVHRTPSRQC
Description: as §1

[3] = molecular target: T3, human muscarinic M4 receptor (Homo sapiens, UniProt P08173); experiment: Alphascreen Surefire phospho-ERK1/2 functional assay, M4; details: for Emax: CHO, read-out: % Emax cf. ACh (M4), CHO cells stably expressing human M4; for Emax / % Emax cf. ACh (M4): relative to ACh
T3 construct: expressed in transfected cells
T3 sequence (P08173 1-479): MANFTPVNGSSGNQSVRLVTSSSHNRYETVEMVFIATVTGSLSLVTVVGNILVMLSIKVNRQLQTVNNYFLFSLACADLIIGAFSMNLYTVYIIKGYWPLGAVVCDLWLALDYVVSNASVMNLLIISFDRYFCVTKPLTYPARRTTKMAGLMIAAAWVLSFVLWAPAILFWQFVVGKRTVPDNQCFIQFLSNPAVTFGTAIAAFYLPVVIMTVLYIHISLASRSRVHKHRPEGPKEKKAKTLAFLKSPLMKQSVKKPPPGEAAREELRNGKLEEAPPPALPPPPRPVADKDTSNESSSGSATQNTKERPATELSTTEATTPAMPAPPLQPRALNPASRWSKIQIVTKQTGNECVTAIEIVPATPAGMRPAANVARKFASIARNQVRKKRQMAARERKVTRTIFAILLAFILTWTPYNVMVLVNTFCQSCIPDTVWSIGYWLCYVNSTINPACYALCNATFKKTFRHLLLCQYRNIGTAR

[4] = molecular target: T4, human muscarinic M3 receptor (Homo sapiens, UniProt P20309); experiment: Alphascreen Surefire phospho-ERK1/2 functional assay, M3; details: phospho-ERK1/2; for EC50: read-out: pEC50 M3 (converted); for Emax: CHO, read-out: % Emax cf. ACh (M3), CHO cells stably expressing human M3
T4 construct: expressed in transfected cells
Description: as §1

[5] = CHO cells stably expressing human M1
[6] = CHO cells stably expressing human M4, phospho-ERK1/2, read-out: pEC50 M4 (converted)
[7] = CHO cells stably expressing human M3
[8] = CHO cells stably expressing human M4, phospho-ERK1/2

T4 sequence (P20309 whole entry): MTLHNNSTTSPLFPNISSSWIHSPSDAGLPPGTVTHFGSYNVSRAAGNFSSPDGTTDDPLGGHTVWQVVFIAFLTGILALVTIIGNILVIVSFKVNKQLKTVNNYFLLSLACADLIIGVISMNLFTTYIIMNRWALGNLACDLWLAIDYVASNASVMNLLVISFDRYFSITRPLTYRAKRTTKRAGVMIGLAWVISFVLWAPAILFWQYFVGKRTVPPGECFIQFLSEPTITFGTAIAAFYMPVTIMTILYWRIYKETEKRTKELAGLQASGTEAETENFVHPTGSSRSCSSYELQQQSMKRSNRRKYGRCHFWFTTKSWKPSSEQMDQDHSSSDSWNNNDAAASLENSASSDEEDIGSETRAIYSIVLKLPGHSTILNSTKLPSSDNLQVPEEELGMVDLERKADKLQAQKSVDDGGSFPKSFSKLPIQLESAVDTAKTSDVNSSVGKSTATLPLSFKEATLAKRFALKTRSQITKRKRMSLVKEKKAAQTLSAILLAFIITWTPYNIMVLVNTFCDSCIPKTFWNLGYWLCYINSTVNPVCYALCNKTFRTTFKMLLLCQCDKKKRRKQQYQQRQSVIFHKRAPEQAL

| EC50 [1] [µM] | Emax [1] [%] | EC50 [2, 5] [nM] | Emax [2] [%] | EC50 [3, 6] [nM] | Emax ([3]; phospho-ERK1/2) [%] | EC50 [4, 7] [µM] | Emax ([4]; relative to ACh) [%] | pEC50 M2 ([1]; CHO cells stably expressing human M2) | % Emax cf. ACh (M2) ([1]; CHO cells stably expressing human M2, relative to ACh) [%] | pEC50 M1 [2, 5] | % Emax cf. ACh (M1) [2, 5] [%] | pEC50 M4 [3, 8] | % Emax cf. ACh (M4) [3, 8] [%] | pEC50 M3 [4, 7] | % Emax cf. ACh (M3) ([4]; CHO cells stably expressing human M3, relative to ACh) [%] | Compound | EC50 ([3]; pEC50 M4) [nM] |
| --- | --- | --- | --- | --- | --- | --- | --- | --- | --- | --- | --- | --- | --- | --- | --- | --- | --- |
| > 20 | 29 | 316 | 42 | 31.6 | 94 | > 20 | 37 | – | – | – | – | – | – | – | – | CCN(C(C)=O)C1CCN(C2CCC3(C2)CN(C(=O)OC)C3)CC1 (single isomer, unassigned) [3-2 Isomer 2] | – |
| – | – | – | – | – | – | – | – | < 4.7 | 18 | 6.2 | 91 | 7.4 | 99 | < 4.7 | 9 | CCOC(=O)N1CCC2(CC(N3CCC(N(CC)C(C)=O)CC3)C2)C1 (single isomer, unassigned) [2-2 Isomer 2] | – |
| > 20 | 60 | 200 | – | 39.8 | – | > 20 | 33 | – | – | – | 113 | – | 108 | – | – | CCOC(=O)N1CCC2(CC(N3CCC(N(CC4CC4)C(C)=O)CC3)C2)C1 (single isomer, unassigned) [2-20 Isomer 2] | – |
| > 20 | 57 | 316 | 109 | 15.8 | 127 | > 20 | 1 | – | – | – | – | – | – | – | – | CCOC(=O)N1CCC2(CC(N3CCC(N(C(=O)OC)C(C)C)CC3)C2)C1 (single isomer, unassigned) [2-41 Isomer 2] | – |
| > 20 | 5 | 398 | 89 | 39.8 | 91 | > 20 | 2 | – | – | – | – | – | – | – | – | CCOC(=O)N1CCC2(CC(N3CCC(N(C=O)CC)CC3)C2)C1 (single isomer, unassigned) [2-16 Isomer 2] | – |
| > 20 | 5 | 398 | 91 | 10 | 124 | > 20 | 17 | – | – | – | – | – | – | – | – | CCOC(=O)N1CCC2(CC(N3CCC(N(CC(F)F)C(C)=O)CC3)C2)C1 (single isomer, unassigned) [2-24 Isomer 2] | – |
| > 20 | 12 | 1000 | 85 | 20 | 106 | > 20 | 11 | – | – | – | – | – | – | – | – | CCOC(=O)N1CCC2(CC(N3CCC(N(Cc4cnco4)CC(F)(F)F)CC3)C2)C1 (single isomer, unassigned) [2-62 Isomer 2] | – |
| > 20 | 7 | 398 | 93 | 25.1 | 106 | > 20 | 7 | – | – | – | – | – | – | – | – | CCOC(=O)N1CCC2(CC(N3CCC(N(CCOC)CC(F)(F)F)CC3)C2)C1 (single isomer, unassigned) [2-52 Isomer 2] | – |
| > 20 | 16 | 79.4 | 120 | 12.6 | 118 | > 20 | 10 | – | – | – | – | – | – | – | – | CCOC(=O)N1CCC2(CC(N3CCC(N(CC)CC(F)(F)F)CC3)C2)C1 (single isomer, unassigned) [2-7 Isomer 2] | – |
| > 20 | 2 | > 20000 | 19 | 10 | 46 | > 20 | 5 | – | – | – | – | – | – | – | – | CCOC(=O)N1CC2(CCC(N3CCC(N(C(C)=O)C4CC4)CC3)C2)C1 (racemic) [3-1 Racemic] | – |
| > 20 | 9 | 2510 | 82 | 39.8 | 115 | > 20 | 5 | – | – | – | – | – | – | – | – | CCOC(=O)N1CCC2(CC(N3CCC(N(OC)C(C)=O)CC3)C2)C1 (single isomer, unassigned) [2-32 Isomer 2] | – |

| Compound | EC50 [1] [µM] | Emax [1] [%] | EC50 [2, 5] [nM] | Emax [2] [%] | EC50 [3, 6] [nM] | Emax ([3]; phospho-ERK1/2) [%] | EC50 [4, 7] [µM] | Emax ([4]; relative to ACh) [%] | pEC50 M2 ([1]; CHO cells stably expressing human M2) | % Emax cf. ACh (M2) ([1]; CHO cells stably expressing human M2, relative to ACh) [%] | pEC50 M1 [2, 5] | % Emax cf. ACh (M1) [2, 5] [%] | pEC50 M4 [3, 8] | % Emax cf. ACh (M4) [3, 8] [%] | pEC50 M3 [4, 7] | % Emax cf. ACh (M3) ([4]; CHO cells stably expressing human M3, relative to ACh) [%] | EC50 ([3]; pEC50 M4) [nM] |
| --- | --- | --- | --- | --- | --- | --- | --- | --- | --- | --- | --- | --- | --- | --- | --- | --- | --- |
| CCOC(=O)N1CCC2(CC(N3CCC(N(CC)CCF)CC3)C2)C1 (single isomer, unassigned) [2-45 Isomer 2] | > 20 | 9 | 631 | 30 | – | 45 | > 20 | 16 | – | – | – | – | – | – | – | – | 63.1 |
